One experiment has as its target T1, human OX1 receptors (Homo sapiens, UniProt O43613).
T1 construct: expressed in transfected cells; host or cells: CHO cells
T1 sequence (O43613 1-425): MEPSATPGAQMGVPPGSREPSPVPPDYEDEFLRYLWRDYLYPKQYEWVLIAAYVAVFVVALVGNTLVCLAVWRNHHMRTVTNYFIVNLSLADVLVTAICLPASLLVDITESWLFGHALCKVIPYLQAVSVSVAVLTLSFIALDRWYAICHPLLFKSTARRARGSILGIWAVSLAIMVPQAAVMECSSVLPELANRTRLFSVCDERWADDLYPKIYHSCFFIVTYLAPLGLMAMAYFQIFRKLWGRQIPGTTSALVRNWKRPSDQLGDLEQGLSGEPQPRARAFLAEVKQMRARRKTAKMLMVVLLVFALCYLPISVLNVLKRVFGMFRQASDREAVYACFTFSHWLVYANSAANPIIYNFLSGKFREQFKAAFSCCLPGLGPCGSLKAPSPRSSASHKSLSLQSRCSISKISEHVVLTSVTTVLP
Kind of experiment: antagonistic activity against human OX1 receptor, [Ca2+]i fluorimetry in transfected CHO cells. The class given is cell-based. As to conditions: CHO cells transfected with human recombinant OX1; activated with orexin-A 3 nM; pKb = co-logarithm of apparent dissociation constant (modified Cheng Prusoff). The protocol: (§1) Thus the plate was loaded with the calcium dye (Fluo-4NW/probenecid in HBSS, Hepes 20 mM, pH 7.4; Invitrogen) at 37° C. for 60 min. Afterward the temperature was equilibrated at 22° C. for 15 min and the [Ca2+]i measured directly on the plate by using a fluorescent plate reader (CeliLux Perkin Elmer).
(§2) Invention compounds were dissolved in DMSO, diluted in HBSS (DMSO, 0.3% final) and added to the wells. After 5 min CHO cells were activated with orexin-A, 3 nM while HEK-293 cells were activated with orexin-B, 10 nM. […] The antagonistic activity has been expressed as pKb (co-logarithm of the apparent dissociation constant calculated by using the modified Cheng Prusoff equation). The results are expressed as percent of control specific […] response ((measured specific response/control specific agonist response)×100) obtained in the presence of the test compounds.
(§3) The IC50 values (concentration causing a half-maximal inhibition of the control specific agonist response) were determinated by non-linear regression analysis of the concentration curves generated with mean replicate values using hill equation curve fitting. The IC50 values are obtained by the arithmetical mean of at least two experiments.

The target of another experiment is T2, human OX2 receptors (Homo sapiens, UniProt O43614).
T2 construct: expressed in transfected cells; host or cells: HEK-293 cells
T2 sequence (O43614 1-444): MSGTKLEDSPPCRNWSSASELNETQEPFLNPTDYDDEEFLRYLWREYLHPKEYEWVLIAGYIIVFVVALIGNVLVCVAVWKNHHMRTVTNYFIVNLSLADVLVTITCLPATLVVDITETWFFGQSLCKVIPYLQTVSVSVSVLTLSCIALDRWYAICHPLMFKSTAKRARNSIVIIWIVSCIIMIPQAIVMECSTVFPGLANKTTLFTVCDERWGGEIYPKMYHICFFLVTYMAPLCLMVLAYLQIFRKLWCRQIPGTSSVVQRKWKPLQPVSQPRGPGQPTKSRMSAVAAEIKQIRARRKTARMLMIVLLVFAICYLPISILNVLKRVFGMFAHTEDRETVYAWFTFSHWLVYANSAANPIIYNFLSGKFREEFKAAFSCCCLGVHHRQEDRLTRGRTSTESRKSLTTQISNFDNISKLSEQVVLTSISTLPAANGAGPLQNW
Put plainly: antagonistic activity against human OX2 receptor, [Ca2+]i fluorimetry in transfected HEK-293 cells. The class given is cell-based. Conditions: read-out: PKb OX2 (converted). The protocol: as §1, §2, §3

On to `O=C(c1cccc2cccnc12)N1CCC(F)(F)CC1CNc1ccc(Cl)cn1` (single isomer, unassigned; isomer a) [Compound 26, (2-(((5-chloropyridin-2-yl)amino)methyl)-4,4-difluoropiperidin-1-yl)(quinolin-8-yl)methanone (isomer A)], for which the Kb on human OX1 receptors was 1.58 nM; on human OX2 receptors, 10 µM.
In the same order, the values of `Cc1ccc(-c2ncccn2)c(C(=O)N2CCC(F)(F)CC2CNc2ncc(C(F)(F)F)cc2F)n1` (single isomer, unassigned; isomer a) [Compound 32, (4,4-difluoro-2-(((3-fluoro-5-(trifluoromethyl)pyridin-2-yl)amino)methyl)piperidin-1-yl)(6-methyl-3-(pyrimidin-2-yl)pyridin-2-yl)methanone (isomer A)] are 2.51 nM and 10 µM.
The like results for `O=C(c1nccc2ccccc12)N1CCC(F)(F)CC1CNc1ccc(C(F)(F)F)cn1` (single isomer, unassigned; isomer a) [Compound 41, (4,4-difluoro-2-(((5-(trifluoromethyl)pyridin-2-yl)amino)methyl)piperidin-1-yl)(isoquinolin-1-yl)methanone (isomer A)] were, in that order, 1.58 nM and 10 µM.
Consider `O=C(c1nccc2ccccc12)N1CCC(F)(F)CC1CNc1ccc(Cl)cn1` (single isomer, unassigned; isomer b) [Compound 24, (2-(((5-chloropyridin-2-yl)amino)methyl)-4,4-difluoropiperidin-1-yl)(isoquinolin-1-yl)methanone (isomer B)], for which the results for the Kb on human OX1 receptors and on human OX2 receptors were 1 nM and 10 µM, respectively.
The like results for `Cc1ccc(-c2ccccc2)c(C(=O)N2CCC(F)(F)CC2CNc2ccc(C(F)(F)F)cn2)n1` (single isomer, unassigned; isomer b) [Compound 38, (4,4-difluoro-2-(((5-(trifluoromethyl)pyridin-2-yl)amino)methyl)piperidin-1-yl)(6-methyl-3-phenylpyridin-2-yl)methanone (isomer B)] were, in that order, 3.16 nM and 0.126 µM.
Take `Cc1ccc(OCC2CC2)c(C(=O)N2CCC(F)(F)C[C@H]2CNc2ccc(C(F)(F)F)cn2)n1` [Compound 46, (S)(3-(cyclopropylmethoxy)-6-methylpyridin-2-yl)(4,4-difluoro-2-(((5-(trifluoromethyl)pyridin-2-yl)amino)methyl)piperidin-1-yl)methanone]: the figures for the Kb on human OX1 receptors and at human OX2 receptors were 15.8 nM and 10 µM, respectively.
